From patent publication US20140128352A1, “COMPOUNDS AND METHODS FOR MODULATING MITOCHONDRIAL METABOLISM AND REACTIVE OXYGEN SPECIES PRODUCTION” (Buck Institute for Research on Aging, priority 2012, published 2014)
Like-named read-outs stand apart in the source and are kept apart here.

Key:
[1] = test system: mitochondrial membrane potential (ΔΨm); assay: Membrane potential (ΔΨm) counterscreen with TMRM; details: malate, nigericin
[2] = biological target: T1, glycerol-3-phosphate dehydrogenase (GPDH) (Rattus norvegicus, UniProt P35571); assay: High-throughput screen: ROS production from glycerol-3-phosphate dehydrogenase (GPDH); assay type: biochemical; set-up: inhibition: dose or concentration left out as unconfirmed; details: for inhibition: Table 7; for inhibition / GPDH: percent change in ROS from DMSO controls; for inhibition at 2.5 µM: Table 6, 25 mM glycerol phosphate, rotenone, antimycin A, malonate, myxothiazol, compounds 2.5 μM, scaled to IQ positive controls, read-out: % Reduction in ROS Production (GPDH)
T1 construct: The activity of GPDH in intact mitochondria (0.3 mg/mL) was measured; from tissue; host or cells: rat skeletal muscle mitochondria (Wistar, Harlan Laboratories)
T1 sequence (P35571 43-727): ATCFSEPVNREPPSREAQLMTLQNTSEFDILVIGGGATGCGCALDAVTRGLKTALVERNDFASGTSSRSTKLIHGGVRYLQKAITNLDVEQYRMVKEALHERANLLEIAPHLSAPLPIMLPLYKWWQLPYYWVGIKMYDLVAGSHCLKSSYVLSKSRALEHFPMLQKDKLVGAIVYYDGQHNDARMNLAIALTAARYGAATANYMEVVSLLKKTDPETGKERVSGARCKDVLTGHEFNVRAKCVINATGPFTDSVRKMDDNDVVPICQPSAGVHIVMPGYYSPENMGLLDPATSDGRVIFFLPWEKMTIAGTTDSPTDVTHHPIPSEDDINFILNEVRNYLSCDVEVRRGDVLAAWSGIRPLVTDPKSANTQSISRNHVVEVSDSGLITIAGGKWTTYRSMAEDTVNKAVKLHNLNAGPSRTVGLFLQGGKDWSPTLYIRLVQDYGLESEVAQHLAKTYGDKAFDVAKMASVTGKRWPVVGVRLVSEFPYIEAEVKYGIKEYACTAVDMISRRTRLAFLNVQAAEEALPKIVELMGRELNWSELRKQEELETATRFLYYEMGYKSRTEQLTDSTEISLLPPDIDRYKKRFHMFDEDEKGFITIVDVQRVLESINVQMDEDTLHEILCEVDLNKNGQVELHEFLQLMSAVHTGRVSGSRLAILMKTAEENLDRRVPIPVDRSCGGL

[3] = test system: ubiquinone binding site of complex I (IQ); assay: High-throughput screen: ROS production from ubiquinone binding site of complex I (IQ), isolated skeletal muscle mitochondria; assay type: biochemical, rat; details: percent change in ROS from DMSO controls
[4] = biological target: T2, flavin binding site of complex I (IF) (Rattus norvegicus, UniProt Q5XIH3); assay: High-throughput screen: ROS production from flavin binding site of complex I (IF); assay type: biochemical; details: percent change in ROS from DMSO controls; for inhibition at 2.5 µM: Table 7, read-out: IF
T2 construct: freshly isolated muscle mitochondria were assayed; from tissue; host or cells: rat skeletal muscle mitochondria (Wistar, Harlan Laboratories)
Method: (§1) Skeletal muscle mitochondria were isolated from 5-8 week old female Wistar rats (Harlan Laboratories). Minced muscle was homogenized in buffer containing bacterial protease Type VIII prior to differential centrifugation to separate mitochondria from other tissue components. Unless otherwise stated, freshly isolated muscle mitochondria were assayed in buffer containing 120 mM KCl, 5 mM HEPES, 1 mM EGTA, 0.3% (w/v) bovine serum albumin. Where indicated, CaCl2 was added to yield a final free concentration of 250 nM calcium at pH 7.0 at 37° C.
Master screening plates were prepared using a Biomek FX liquid handling workstation (Beckman) to transfer 1 μL of each compound into individual wells on 96-well storage plates (80 compounds per plate). […] Just prior to use, plates were brought to room temperature and diluted 300-fold with standard buffer (13.3X=33.3 μM). To monitor the performance of each assay throughout screening and to provide intra-plate normalization reference points, DMSO negative controls and known mitochondrial inhibitor positive controls were included on each Master compound plate.
(§2) Total amounts of superoxide and H2O2 production were determined fluorometrically as H2O2, without distinguishing between them, in the presence of exogenous superoxide dismutase (25 units/mL final), horseradish peroxidase (1 unit/mL final), and Amplex UltraRed (25 μM final) as described (Affourtit, C. et al. (2012) Measurement of proton leak and electron leak in isolated mitochondria. Methods Mol. Biol. 810: 165-82). Just prior to use, a bulk 3.3X solution was made in standard buffer and distributed into a 2 mL deep well 96-well transfer plate.
To assess the effects of a compound on ROS production from the flavin binding site of complex I (IF), Start Solution containing 5 mM glutamate, 5 mM malate and 4 μM rotenone was distributed into standard 96-well transfer plates. A Biomek FX workstation was programmed to dispense solutions into black 96-well assay plates. Solutions were dispensed to all assay plates in the following order: ROS Detection solution described in Example 3, Mitochondria solution described in Example 1 to a final concentration of 0.3 mg/ml, and Compound dilutions described in Example 2. Duplicate assay plates were made and each was initiated by the addition of 3.3X Start solution containing 5 mM glutamate, 5 mM malate and 4 μM rotenone. Plates were incubated in the dark at room temperature for 30-40 minutes before acquiring endpoint fluorescence using a Victor 3V plate reader (Perkin Elmer) equipped with 550/590 nm excitation/emission filters.
The fluorescence values in each well were scaled as the percent change from the intra-plate DMSO controls with the appropriate inhibitor positive controls defined as −100%. Following initial scaling, intra-plate normalized values were subjected to Tukey's two-way median polish to remove row and column dependent positional effects (Malo, N. et al. (2006) Statistical practice in high-throughput screening data analysis. Nat. Biotechnol. 24(2): 167-75).

[5] = biological target: T3, outer ubiquinone binding site of complex III (IIIQO) (Rattus norvegicus, UniProt P00159+P20788); assay: High-throughput screen: ROS production from outer ubiquinone binding site of complex III (IIIQO); assay type: biochemical; details: for IIIQO: Table 8
T3 construct: freshly isolated muscle mitochondria were assayed; from tissue; host or cells: rat skeletal muscle mitochondria (Wistar, Harlan Laboratories)

[6] = biological target: T4, succinate dehydrogenase/complex II (SDH) (Rattus norvegicus, UniProt P21913+Q641Z9+Q6PCT8+Q920L2); assay: High-throughput screen: ROS production from succinate dehydrogenase/complex II (SDH); assay type: biochemical; details: for inhibition at 2.5 µM: Table 7; for inhibition at 2.5 µM / SDH: percent change in ROS from DMSO controls
T4 construct: freshly isolated muscle mitochondria were assayed; from tissue; host or cells: rat skeletal muscle mitochondria (Wistar, Harlan Laboratories)
Method: as §1
Just prior to use, plates were brought to room temperature and diluted 300-fold with standard buffer (13.3X=33.3 μM). To monitor the performance of each assay throughout screening and to provide intra-plate normalization reference points, DMSO negative controls and known mitochondrial inhibitor positive controls were included on each Master compound plate.
as §2
To assess the effects of a compound on ROS production from succinate dehydrogenase/complex II (SDH), Start Solution containing 15 μM palmitoyl carnitine, 2.5 μM antimycin A and 2 μM myxothiazol was distributed into standard 96-well transfer plates. A Biomek FX workstation was programmed to dispense solutions into black 96-well assay plates. Solutions were dispensed to all assay plates in the following order: ROS Detection solution described in Example 3, Mitochondria solution described in Example 1 to a final concentration of 0.3 mg/ml, and Compound dilutions described in Example 2. Duplicate assay plates were made and each was initiated by the addition of 3.3X Start solution containing 15 μM palmitoyl carnitine, 2.5 μM antimycin A and 2 μM myxothiazol. Plates were incubated in the dark at room temperature for 30-40 minutes before acquiring endpoint fluorescence using a Victor 3V plate reader (Perkin Elmer) equipped with 550/590 nm excitation/emission filters.
The fluorescence values in each well were scaled as the percent change from the intra-plate DMSO controls with the appropriate inhibitor positive controls defined as −100%. Following initial scaling, intra-plate normalized values were subjected to Tukey's two-way median polish to remove row and column dependent positional effects (Malo et al., 2006).

[7] = Table 7, percent change in ROS from DMSO controls, read-out: IIIQO
[8] = percent change in ROS from DMSO controls
[9] = Table 9, percent change in ROS from DMSO controls, read-out: IIIQo
[10] = Table 4, 5 mM succinate, 4 μM rotenone, 2.5 μM antimycin A, compounds 2.5 μM, percent change from DMSO, read-out: % Reduction in ROS production (IIIQO)

T4 sequence (Q920L2 35-656): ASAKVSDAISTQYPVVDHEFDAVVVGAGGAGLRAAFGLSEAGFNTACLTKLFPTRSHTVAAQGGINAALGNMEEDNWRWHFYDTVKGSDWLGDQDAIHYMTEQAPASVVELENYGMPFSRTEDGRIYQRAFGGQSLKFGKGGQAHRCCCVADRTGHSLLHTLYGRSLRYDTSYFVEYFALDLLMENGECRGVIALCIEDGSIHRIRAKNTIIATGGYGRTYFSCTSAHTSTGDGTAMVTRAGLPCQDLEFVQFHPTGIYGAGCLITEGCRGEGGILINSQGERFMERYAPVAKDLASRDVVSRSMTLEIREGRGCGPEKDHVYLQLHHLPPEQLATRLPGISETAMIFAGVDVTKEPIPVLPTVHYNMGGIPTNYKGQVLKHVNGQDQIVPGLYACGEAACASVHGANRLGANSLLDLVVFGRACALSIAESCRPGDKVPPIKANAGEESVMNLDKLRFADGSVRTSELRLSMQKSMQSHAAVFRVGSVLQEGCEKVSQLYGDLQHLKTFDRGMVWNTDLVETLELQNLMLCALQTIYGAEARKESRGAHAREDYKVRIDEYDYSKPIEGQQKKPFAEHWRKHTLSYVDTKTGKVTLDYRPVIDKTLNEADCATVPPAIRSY
T4 sequence (P21913 31-282): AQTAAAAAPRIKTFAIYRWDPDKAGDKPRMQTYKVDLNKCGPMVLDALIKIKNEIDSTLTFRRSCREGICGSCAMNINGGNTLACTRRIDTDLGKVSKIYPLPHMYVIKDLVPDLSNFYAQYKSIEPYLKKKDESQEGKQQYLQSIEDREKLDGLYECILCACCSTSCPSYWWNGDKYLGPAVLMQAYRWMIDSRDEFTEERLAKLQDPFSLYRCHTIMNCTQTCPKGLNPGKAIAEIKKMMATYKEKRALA
T4 sequence (Q641Z9 30-169 limits assumed): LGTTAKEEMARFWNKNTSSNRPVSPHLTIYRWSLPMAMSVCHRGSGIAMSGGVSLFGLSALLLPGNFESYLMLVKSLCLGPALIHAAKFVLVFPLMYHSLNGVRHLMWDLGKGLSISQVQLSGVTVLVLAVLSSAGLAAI
T4 sequence (Q6PCT8 57-159): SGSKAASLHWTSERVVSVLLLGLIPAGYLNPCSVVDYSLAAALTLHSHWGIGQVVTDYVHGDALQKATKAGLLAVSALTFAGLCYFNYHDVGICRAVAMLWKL
T2 sequence (Q5XIH3 21-464 limits assumed, one chain of several): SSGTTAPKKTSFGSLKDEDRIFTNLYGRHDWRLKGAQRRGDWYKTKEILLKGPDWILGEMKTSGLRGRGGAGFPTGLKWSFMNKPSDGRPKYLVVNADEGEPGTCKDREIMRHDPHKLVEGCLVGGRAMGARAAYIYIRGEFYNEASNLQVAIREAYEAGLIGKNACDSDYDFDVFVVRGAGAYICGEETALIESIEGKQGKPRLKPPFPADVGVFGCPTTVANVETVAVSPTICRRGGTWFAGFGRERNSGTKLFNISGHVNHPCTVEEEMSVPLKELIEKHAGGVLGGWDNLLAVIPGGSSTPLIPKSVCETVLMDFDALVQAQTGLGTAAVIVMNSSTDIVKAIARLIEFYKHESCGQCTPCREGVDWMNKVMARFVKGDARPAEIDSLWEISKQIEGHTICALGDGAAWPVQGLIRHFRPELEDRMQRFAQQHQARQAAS

Row | Compound | inhibition [2] | GPDH ([2]; Table 8) | GPDH ([2]; Table 9) | inhibition at 2.5 µM [5, 7] | IIIQO [5, 8] | inhibition at 2.5 µM [5, 9] | inhibition at 2.5 µM [5, 10] | inhibition at 2.5 µM [6] | inhibition at 2.5 µM [2] | % Reduction in ROS Production (SDH) ([6]; Table 5, 15 μM palmitoyl carnitine, 2.5 μM antimycin A, 2 μM myxothiazol, compounds 2.5 μM, percent change from DMSO) | SDH ([6]; Table 8) | SDH ([6]; Table 9) | ΔΨm ([1]; Table 8, glutamate) | ΔΨm ([1]; Table 9, glutamate) | IQ ([3]; Table 7) | IQ ([3]; Table 8) | IQ ([3]; Table 9) | inhibition at 2.5 µM [4] | IF ([4]; Table 8) | IF ([4]; Table 9)
1 | COc1cccc(CCNC2C3CC4CC(C3)CC2C4)c1 (stereo not drawn) [Compound 26] | 3.3% | −3.3 | −3.3 | 1.8% | −1.8 | 1.8% |  |  |  |  |  |  | −0.7 | −0.7 | −0.8 | −0.8 | −0.8 | 19.6% | −19.6 | −19.6
2 | CCCCN(Cc1ccccc1)Cc1cc(Cl)cc(Cl)c1O [Compound 38] | -3.7% | 3.7 | 3.7 | 31.3% | −31.3 | 31.3% | 31.3% |  |  |  |  |  | 0.3 | 0.3 | −3.9 | −3.9 | −3.9 | 1.8% | −1.8 | −1.8
3 | Fc1ccc(N2CCN(CC(c3ccccc3)c3ccccc3)CC2)cc1 [Compound 39] | 4.7% | −4.7 | −4.7 | 26.8% | −26.8 | 26.8% | 26.8% |  |  |  |  |  | 0.5 | 0.5 | 2.7 | 2.7 | 2.7 | 0.9% | −0.9 | −0.9
4 | COC(=O)c1ccc(CN(CCc2ccccc2)Cc2ccccc2)cc1 [Compound 43] | -3.4% | 3.4 | 3.4 | 23.2% | −23.2 | 23.2% | 23.2% |  |  |  |  |  | 0.6 | 0.6 | −0.5 | −0.5 | −0.5 | 4.4% | −4.4 | −4.4
5 | CCCCN(Cc1ccccc1)Cc1cccc(Oc2ccc(Cl)cc2)c1 [Compound 44] | 3.4% | −3.4 | −3.4 | 23.1% | −23.1 | 23.1% | 23.1% |  |  |  |  |  | 1.0 | 1.0 | 0.4 | 0.4 | 0.4 | -3.1% | 3.1 | 3.1
6 | C=C(C)CN(CC)Cc1cc([N+](=O)[O-])ccc1Cl [Compound 45] | -3.1% | 3.1 | 3.1 | 20.2% | −20.2 | 20.2% | 20.2% |  |  |  |  |  | 0.3 | 0.3 | −0.2 | −0.2 | −0.2 | -0.5% | 0.5 | 0.5
7 | COC(=O)CCC(=O)Nc1ccc(C)cc1 [Compound 53] | -0.9% |  |  | -0.8% |  |  |  | 0.3% | 0% |  |  |  |  |  | 0.1 |  |  | -1.3% |  | 
8 | CCCCCCNC(=O)CCC(=O)O [Compound 54] | -3.3% |  |  | -2.5% |  |  |  | -4.4% | -0.9% |  |  |  |  |  | 2.3 |  |  | -8% |  | 
9 | c1ccc2[nH]c(-c3ccc(-c4nc5ccccc5[nH]4)cc3)nc2c1 [Compound 55] | -1.5% |  |  | -3.3% |  |  |  | -1.5% | -3.3% |  |  |  |  |  | −3.9 |  |  | 1.9% |  | 
10 | C=C(C)C(=O)Nc1ccc(-c2nc3ccccc3[nH]2)cc1 [Compound 56] | 0.8% |  |  | -1.4% |  |  |  | 2.9% | -1.5% |  |  |  |  |  | −0.3 |  |  | -0.3% |  | 
11 | O=C(O)CCC(=O)Nc1ccc(-c2nc3cc(NC(=O)CCC(=O)O)ccc3[nH]2)cc1 [Compound 57] | -0.2% |  |  | -0.4% |  |  |  | -4.2% | 0.8% |  |  |  |  |  | 3.1 |  |  | -1.7% |  | 
12 | O=C(O)CCC(=O)Nc1ccc(Cl)cc1 [Compound 58] | 1.2% |  |  | -0.8% |  |  |  | -1.5% | -0.2% |  |  |  |  |  | −6.4 |  |  | -0.1% |  | 
13 | CC(=O)Nc1ccc(-c2nc3ccccc3[nH]2)cc1 [Compound 59] | 4.4% |  |  | 1.3% |  |  |  | 5.1% | 1.2% |  |  |  |  |  | −12.3 |  |  | 3% |  | 
14 | O=C(O)CCC(=O)Nc1cccc(-c2nc3ccccc3[nH]2)c1 [Compound 60] | 48.3% |  |  | -1.1% |  |  |  | 3.4% | 4.4% |  |  |  |  |  | −43.9 |  |  | 4.2% |  | 
15 | O=C(Nc1ccc(-c2nc3ccccc3[nH]2)cc1)c1ccco1 [Compound 63] | -8.2% |  |  | -1.8% |  |  |  | -3.5% | 1.7% |  |  |  |  |  | −6.9 |  |  | -0.9% |  | 
16 | CCOc1ccc(C(=O)Nc2ccc(-c3nc4ccccc4[nH]3)cc2)cc1 [Compound 64] | 13% |  |  | 1% |  |  |  | -9.8% | -8.2% |  |  |  |  |  | −15.3 |  |  | 3.8% |  | 

Further lines, with some results ahead:

Row | inhibition [2] | GPDH ([2]; Table 8) | GPDH ([2]; Table 9) | inhibition at 2.5 µM [5, 7] | IIIQO [5, 8] | inhibition at 2.5 µM [5, 9] | inhibition at 2.5 µM [5, 10] | inhibition at 2.5 µM [6] | inhibition at 2.5 µM [2] | % Reduction in ROS Production (SDH) ([6]; Table 5, 15 μM palmitoyl carnitine, 2.5 μM antimycin A, 2 μM myxothiazol, compounds 2.5 μM, percent change from DMSO) | SDH ([6]; Table 8) | SDH ([6]; Table 9) | Compound | ΔΨm ([1]; Table 8, glutamate) | ΔΨm ([1]; Table 9, glutamate) | IQ ([3]; Table 7) | IQ ([3]; Table 8) | IQ ([3]; Table 9) | inhibition at 2.5 µM [4] | IF ([4]; Table 8) | IF ([4]; Table 9)
17 | 1.9% |  |  | 1% |  |  |  | -0.2% | 13% |  |  |  | O=C(O)CCC(=O)Nc1ccc(-c2nc3ccccc3s2)cc1 [Compound 65] |  |  | −11.0 |  |  | 1.3% |  | 
18 | -1.8% |  |  | 1.2% |  |  |  | 2.5% | 1.9% |  |  |  | O=C(Nc1ccc(-c2nc3ccccc3[nH]2)cc1)C1CC1 [Compound 66] |  |  | −2.8 |  |  | 0.2% |  | 
19 | 11.1% |  |  | 6.5% |  |  |  | 16.8% | -1.8% |  |  |  | Cc1ccc(NC(=O)CCC(=O)O)cc1 [Compound 67] |  |  | −11.7 |  |  | 10.1% |  | 
20 | 32.1% |  |  | -1.1% |  |  |  | 3.7% | 11.1% |  |  |  | CCCC(=O)Nc1ccc(-c2nc3cc4ccccc4cc3[nH]2)cc1 [Compound 68] |  |  | −23.0 |  |  | 1.3% |  | 
21 | 26% |  |  | -5.5% |  |  |  | 6.3% | 32.1% |  |  |  | O=C(O)CCC(=O)Nc1ccc(-c2nc3cc(C(=O)c4ccccc4)ccc3[nH]2)cc1 [Compound 69] |  |  | −20.1 |  |  | 1.8% |  | 
22 | 0% |  |  | 0.4% |  |  |  | -4.6% | 26% |  |  |  | Cc1ccc2[nH]c(-c3ccc(NC(=O)CCC(=O)O)cc3)nc2c1 [Compound 70] |  |  | −0.2 |  |  | 2.2% |  | 
23 | 0.6% | −0.6 | −0.6 | -6.3% | 6.3 | -6.3% |  | 87.6% |  | −87.6% | −87.6 | −87.6 | CC1CC(C)(C)N(C=O)c2ccccc21 (stereo not drawn) [Compound 71] |  |  | 1.6 | 1.6 | 1.6 | -7% | 7.0 | 7.0
